Experimental data from US20230146455A1, “TREATMENT OF INFLAMMATORY DISEASES WITH PEPTIDES AND PHARMACEUTICAL COMPOSITIONS” (Yuyu Pharma, Inc., priority 2020, published 2023).
Values joined by “and” are separate entries in the source; they are usually repeats but may differ in a detail not shown here. Identical values can stand only once. Where a SMILES comes first, the peptide text is derived from it. [ ]: non-standard residue; d: D form. Hyp = O=C(O)[C@@H]1C[C@@H](O)CN1

Test system: VEGF-A
Test: Example 9 Luminex, LPS hPBMCs: VEGF-A
Type: cell-based, human
Description: Treatment Human PBMCs were pretreated with YY-101, YDE-011 and YDE-043 or reference compound; Xiidra® at various concentration (ranging from 1 nM to 100 uM) for 2 h before stimulation. An equal volume of 0.5% DMSO was used as a vehicle control. Then, the cells were treated with LPS at 5 ug/ml. The supernatants from treated cells were harvested at 24 h and placed in a 96 well for Luminex cytokine & chemokine profiling using a Luminex 200 multiplex assay (Luminex; R&D system, USA).
The main study arm with triplicate wells per group in a 24-well plate: • 1. Blank • 2. PBMC: 0.5% DMSO • 3. PBMC+LPS (5 ug/ml) • 4. PBMC+YY-101 100 uM • 5. PBMC+YY-101 10 uM • 6. PBMC+YY-101 1 uM • 7. PBMC+YY-101 0.1 uM • 8. PBMC+YY-101 0.01 uM • 9. PBMC+LPS (5 ug/ml)+Xiidra®100 uM • 10. PBMC+LPS (5 ug/ml)+Xiidra® 10 uM • 11. PBMC+LPS (5 ug/ml)+Xiidra® 1 uM • 12. PBMC+LPS (5 ug/ml)+Xiidra®0.1 uM • 13. PBMC+LPS (5 ug/ml)+Xiidra®0.01 uM • 14. PBMC+LPS (5 ug/ml)+Xiidra®0.001 uM • 15. PBMC+LPS (5 ug/ml)+YY-101 100 uM • 16. PBMC+LPS (5 ug/ml)+YY-101 10 uM • 17. PBMC+LPS (5 ug/ml)+YY-101 1 uM • 18. PBMC+LPS (5 ug/ml)+YY-101 0.1 uM • 19. PBMC+LPS (5 ug/ml)+YY-101 0.01 uM • 20. PBMC+LPS (5 ug/ml)+YY-101 0.001 uM • 21. PBMC+LPS (5 ug/ml)+YDE-011 100 uM • 22. PBMC+LPS (5 ug/ml)+YDE-011 10 uM • 23. PBMC+LPS (5 ug/ml)+YDE-011 1 uM • 24. PBMC+LPS (5 ug/ml)+YDE-011 0.1 uM • 25. PBMC+LPS (5 ug/ml)+YDE-011 0.01 uM • 26. PBMC+LPS (5 ug/ml)+YDE-011 0.001 uM • 27. PBMC+LPS (5 ug/ml)+YDE-043 100 uM • 28. PBMC+LPS (5 ug/ml)+YDE-043 10 uM • 29. PBMC+LPS (5 ug/ml)+YDE-043 1 uM • 30. PBMC+LPS (5 ug/ml)+YDE-043 0.1 uM • 31. PBMC+LPS (5 ug/ml)+YDE-043 0.01 uM • 32. PBMC+LPS (5 ug/ml)+YDE-043 0.001 uM
Multiplex assay was used to measure 30 cytokines and chemokines. The 1:2, 1:10 and 1:200 diluted cell supernatant and serial dilution of the standard were dispensed into a 96 well plate at 50 ul/well. Then, the pre-mixed cocktail of antibody-coated magnetic beads was dispensed at 50 ul/well and incubated at room temperature for 2 h in a horizontal orbital microplate shaker at 800±500 rpm. The beads were washed using a magnetic device to prevent loss. The biotin-antibody was dispensed in 50 ul of each well and incubated at room temperature for 1 h in a shaker at 800±500 rpm. After washing, streptavidin-PE was added at 50 ul/well and incubated at room temperature for 30 min in a shaker under the same conditions. Finally, after washing, wash buffer (100 ul/well) was added to the plate and incubated in a shaker for 2 min. The Luminex™ 200 setting were set according to the manufacturer's protocol. The data was calculated with a standard five-parameter logistic nonlinear regression analysis of the data (xPonent software 4.2, USA). The levels of cytokine/chemokine are normalized to the live cell counts (1×10^5 cells/mL) and presented as concentrations per mL (pg/mL or ng/mL).

[1] = PBMC + LPS(5 ug/ml) + test article 0.001 uM, Mean
[2] = PBMC + LPS(5 ug/ml) + test article 0.001 uM, single replicates
[3] = PBMC + LPS(5 ug/ml) + test article 0.01 uM, Mean
[4] = PBMC + LPS(5 ug/ml) + test article 0.01 uM, single replicates
[5] = PBMC + LPS(5 ug/ml) + test article 0.1 uM, Mean
[6] = PBMC + LPS(5 ug/ml) + test article 0.1 uM, single replicates
[7] = PBMC + LPS(5 ug/ml) + test article 1 uM, Mean
[8] = PBMC + LPS(5 ug/ml) + test article 1 uM, single replicates
[9] = PBMC + LPS(5 ug/ml) + test article 10 uM, Mean
[10] = PBMC + LPS(5 ug/ml) + test article 10 uM, single replicates
[11] = PBMC + LPS(5 ug/ml) + test article 100 uM, Mean
[12] = PBMC + LPS(5 ug/ml) + test article 100 uM, single replicates
[13] = PBMC + test article 0.01 uM, no LPS, Mean
[14] = PBMC + test article 0.01 uM, no LPS, single replicates
[15] = PBMC + test article 0.1 uM, no LPS, Mean
[16] = PBMC + test article 0.1 uM, no LPS, single replicates
[17] = PBMC + test article 1 uM, no LPS, Mean
[18] = PBMC + test article 1 uM, no LPS, single replicates
[19] = PBMC + test article 10 uM, no LPS, Mean
[20] = PBMC + test article 10 uM, no LPS, single replicates
[21] = PBMC + test article 100 uM, no LPS, Mean
[22] = PBMC + test article 100 uM, no LPS, single replicates

SMILES: CC(C)C[C@H](NC(=O)CNC(=O)[C@H](CC(=O)O)NC(=O)[C@H](CCC(N)=O)NC(=O)CNC(=O)[C@@H]1C[C@@H](O)CN1)C(=O)N[C@@H](C)C(=O)NCC(=O)N1CCC[C@H]1C(=O)N[C@@H](CCCCN)C(=O)O [YY-101] (H-[Hyp]GQDGLAGPK-OH; N-terminus and C-terminus assumed)
- Concentration, Bead name: VEGF-A [1]: 3.0 pg/mL
- MFI, Bead name: VEGF-A [1]: −0.9
- conc/live cell, Bead name: VEGF-A [1]: 0.4 pg/10^5
- Concentration, Bead name: VEGF-A [2]: 2.2 pg/mL and 6.1 pg/mL and 0.6 pg/mL
- MFI, Bead name: VEGF-A [2]: −1.3 and 0.3 and −1.8
- conc/live cell, Bead name: VEGF-A [2]: 0.4 pg/10^5 and 0.9 pg/10^5 and 0.1 pg/10^5
- Concentration, Bead name: VEGF-A [3]: 0.6 pg/mL
- MFI, Bead name: VEGF-A [3]: −3.1
- conc/live cell, Bead name: VEGF-A [3]: 0.0 pg/10^5
- Concentration, Bead name: VEGF-A [4]: 0.6 pg/mL
- MFI, Bead name: VEGF-A [4]: −1.8 and −3.8 (2×)
- conc/live cell, Bead name: VEGF-A [4]: 0.1 pg/10^5 and 0.0 pg/10^5 (2×)
- Concentration, Bead name: VEGF-A [5]: 2.6 pg/mL
- MFI, Bead name: VEGF-A [5]: −1.1
- conc/live cell, Bead name: VEGF-A [5]: 0.4 pg/10^5
- Concentration, Bead name: VEGF-A [6]: 3.6 pg/ml (2×) and 0.6 pg/ml
- MFI, Bead name: VEGF-A [6]: −0.8 (2×) and −1.8
- conc/live cell, Bead name: VEGF-A [6]: 0.6 pg/10^5 (2×) and 0.1 pg/10^5
- Concentration, Bead name: VEGF-A [7]: 2.9 pg/mL
- MFI, Bead name: VEGF-A [7]: −1.4
- conc/live cell, Bead name: VEGF-A [7]: 0.3 pg/10^5
- Concentration, Bead name: VEGF-A [8]: 2.2 pg/mL and 3.6 pg/mL
- MFI, Bead name: VEGF-A [8]: −2.3 and −1.3 and −0.8
- conc/live cell, Bead name: VEGF-A [8]: 0.0 pg/10^5 and 0.3 pg/10^5 and 0.6 pg/10^5
- Concentration, Bead name: VEGF-A [9]: 2.7 pg/mL
- MFI, Bead name: VEGF-A [9]: −1.1
- conc/live cell, Bead name: VEGF-A [9]: 0.4 pg/10^5
- Concentration, Bead name: VEGF-A [10]: 2.2 pg/ml (2×) and 3.6 pg/ml
- MFI, Bead name: VEGF-A [10]: −1.3 (2×) and −0.8
- conc/live cell, Bead name: VEGF-A [10]: 0.4 pg/10^5 and 0.3 pg/10^5 and 0.5 pg/10^5
- Concentration, Bead name: VEGF-A [11]: 4.3 pg/mL
- MFI, Bead name: VEGF-A [11]: −0.4
- conc/live cell, Bead name: VEGF-A [11]: 0.7 pg/10^5
- Concentration, Bead name: VEGF-A [12]: 6.1 pg/ml (2×) and 0.6 pg/ml
- MFI, Bead name: VEGF-A [12]: 0.3 (2×) and −1.8
- conc/live cell, Bead name: VEGF-A [12]: 1.0 pg/10^5 (2×) and 0.1 pg/10^5
- Concentration, Bead name: VEGF-A [13]: 8.4 pg/mL
- MFI, Bead name: VEGF-A [13]: 1.3
- conc/live cell, Bead name: VEGF-A [13]: 1.7 pg/10^5
- Concentration, Bead name: VEGF-A [14]: 10.7 pg/mL and 6.1 pg/mL
- MFI, Bead name: VEGF-A [14]: 2.3 and 0.3
- conc/live cell, Bead name: VEGF-A [14]: 2.1 pg/10^5 and 1.3 pg/10^5
- Concentration, Bead name: VEGF-A [15]: 7.3 pg/mL
- MFI, Bead name: VEGF-A [15]: 0.8
- conc/live cell, Bead name: VEGF-A [15]: 1.4 pg/10^5
- Concentration, Bead name: VEGF-A [16]: 6.1 pg/mL and 8.5 pg/mL
- MFI, Bead name: VEGF-A [16]: 0.3 and 1.3
- conc/live cell, Bead name: VEGF-A [16]: 1.4 pg/10^5 and 1.5 pg/10^5
- Concentration, Bead name: VEGF-A [17]: 7.3 pg/mL
- MFI, Bead name: VEGF-A [17]: 0.8
- conc/live cell, Bead name: VEGF-A [17]: 1.3 pg/10^5
- Concentration, Bead name: VEGF-A [18]: 8.5 pg/mL and 6.1 pg/mL
- MFI, Bead name: VEGF-A [18]: 1.3 and 0.3
- conc/live cell, Bead name: VEGF-A [18]: 1.5 pg/10^5 and 1.1 pg/10^5
- Concentration, Bead name: VEGF-A [19]: 7.9 pg/mL
- MFI, Bead name: VEGF-A [19]: 1.0
- conc/live cell, Bead name: VEGF-A [19]: 1.3 pg/10^5
- Concentration, Bead name: VEGF-A [20]: 7.3 pg/mL and 8.5 pg/mL
- MFI, Bead name: VEGF-A [20]: 0.8 and 1.3
- conc/live cell, Bead name: VEGF-A [20]: 1.1 pg/10^5 and 1.4 pg/10^5
- Concentration, Bead name: VEGF-A [21]: 3.6 pg/mL
- MFI, Bead name: VEGF-A [21]: −0.8
- conc/live cell, Bead name: VEGF-A [21]: 0.5 pg/10^5
- Concentration, Bead name: VEGF-A [22]: 3.6 pg/mL
- MFI, Bead name: VEGF-A [22]: −0.8
- conc/live cell, Bead name: VEGF-A [22]: 0.6 pg/10^5 and 0.5 pg/10^5
